Data set [1] deals with L1210 Leukemia. The data set is described as follows: Survival of mice with L1210 leukemia (norspermidine, DFMO). Particulars: Norspermidine i.p. 50 mg/kg/day day 1 to 7; DFMO 2% solution in drinking water (approximately 3 g/kg). The data set is classed as in vivo. As to the method: (§1) 1 x 10^5 L1210 leukemic cells per animal were innoculated i.p. on day 0 and drug treatments were started on day 1. DFMO was administered as 2% solution in drinking water (approximately 3 g/kg based on fluid intake). Norspermidine was administered i.p. at 50 mg/kg/day from day 1 to 7. Polyamine concentrations were determined on cells collected from treated and control animals on day 4. ND: not detectable; [formula]

In data set [2] the test system is L1210 Leukemia. The data set is described as follows: Polyamine levels of L1210 leukemia cells collected from treated mice. Type of data set: in vivo. Particulars: L1210 cells collected on day 4; Norspermidine i.p. 50 mg/kg/day; DFMO 2% in drinking water. As to the method:
as §1

For a further data set, the system named is Lewis Lung Tumor (3LL). As to the kind of experiment: Growth of Lewis lung tumor (3LL) in mice (DFMO, norspermidine). Type of data set: in vivo. Particulars: 3LL s.c.; Norspermidine i.p. 50 mg/kg/day day 1 to 14; DFMO 2% in drinking water; tumors weighed at end of 18 days. The protocol:
1 x 10^5 3LL cells per animal were injected s.c. in the intrascapular region of the mice on day 0. Drug treatments were started on day 1. DFMO was administered as a 2% solution in drinking water (approximately 3 g/kg based on fluid intake). Norspermidine was administered i.p. 50 mg/kg/day from day 1 to 14. At the end of 18 days, animals were sacrificed, tumors disected and weighed.

Data set [3] relates to B16 Melanoma. As to the kind of experiment: Survival of B16 melanoma bearing mice (DFMO, norspermidine). The data set is classed as in vivo. To be noted: B16 i.p.; Norspermidine i.p. 50 mg/kg/day day 1 to 7; DFMO 2% in drinking water. As to the method: 1 x 10^5 B16 melanoma cells per animal were injected i.p. on day 0. Drug treatments were started on day 1. DFMO was administered as a 2% solution in drinking water (approximately 3 g/kg based on fluid intake). Norspermidine was administered i.p. at 50 mg/kg/day starting day 1 to 7. [formula]

The subject of data set [4] is HeLa Cells. The data set is described as follows: Growth and mitotic index of HeLa cells in culture (norspermidine). The data set is classed as cell-based, Human. To be noted: 72 hours, 37°C.
Data set [5] deals with HeLa Cells. The data set is described as follows: Polyamine levels of HeLa cells in culture (norspermidine). Type of data set: cell-based, Human.
Data set [6] has as its system Human Cervical Cancer (HeLa). As to the kind of experiment: Growth of HeLa cells in culture (N,N'-bis(3-aminopropyl)-1,8-octanediamine). The data set is classed as cell-based. To be noted: 72 hours, 37°C. As to the method: (§2) HeLa cells and B16 melanoma cells were plated at a density of 1 x 10^5/plate (35 mm) and incubated overnight. Different concentrations of the compound in regular medium --were added and cell growth was determined after 72 hours of incubation at 37°C.

Data set [7] concerns Mouse Melanoma (B16) Cells. As to the kind of experiment: Growth of B16 melanoma cells in culture (N,N'-bis(3-aminopropyl)-1,8-octanediamine). Particulars: 72 hours, 37°C. Type of data set: cell-based. The protocol:
as §2

The test system of data set [8] is L1210 Leukemia. The data set is described as follows: Antitumor activity against L1210 leukemia in mice, survival (N,N'-bis(3-aminopropyl)-1,8-octanediamine). Type of data set: in vivo. As to the method:
Treatment Survival (Days) % T/C Control 7.5 ^± 0.5 Compound 25 mg/kg^* 16.0 ^± 1.5 213.3 6.26 mg/kg^** 27 ^± 3.0 360.0 1 x 10^5 L1210 leukemic cells/animal were inoculated i.p. on day 0 and drug treatments were started as follows: * N,N'-bis(3-aminopropyl)-1,8-octanediamine was administered i.p. at 25 mg/Kg/day. from day 1-7. ^** The compound was administered i.p. at 6.25 mg/kg 4 times a day, every three hours starting at 8:30 a.m. to 5:30 p.m. from days 3-7. [formula]

The test system of data set [9] is B16 Melanoma. As to the kind of experiment: Antitumor activity against B16 melanoma in mice, tumor weight. The data set is classed as in vivo. To be noted: day 1-10, tumor cells s.c., sacrificed on day 15. The protocol: (§3) 1 x 10^5 tumor cells/animal were inoculated s.c. on day 0 and the drug treatments were started on day 1. "N,N'-bis (3-aminopropyl)-1, 8-octanediamine was administered at different doses from day 1-10. The animals were sacrificed on day 15 and the tumors were dissected and weighed.

The next data set concerns Lewis Lung Carcinoma. The data set is described as follows: Antitumor activity against Lewis lung carcinoma in mice, tumor weight. To be noted: day 1-10, tumor cells s.c., sacrificed on day 15. Type of data set: in vivo. The protocol:
as §3

Data on three compounds can be found in patent EP0162413A2, “Polyamine for use as a medicine in the treatment of neoplasms” (MERRELL DOW PHARMACEUTICALS INC., priority 1984, dated 1985).

Turning to `NCCC[C@](N)(C(=O)O)C(F)F` [DFMO, α-difluoromethyl ornithine, reference compound], in the data set with L1210 Leukemia [1], the “% T/C” value was found to be 107% and the “Survival” value was determined as 8.0 days. Moreover, in the data set with L1210 Leukemia [2], the “Polyamine Concentration Putrescine” value worked out at 0.015 n·moles/10^6 cells, the “Polyamine Concentration Spermidine” value came out at 0.84 n·moles/10^6 cells and the “Polyamine Concentration Spermine” value amounted to 1.18 n·moles/10^6 cells. For the same compound, in the data set on Lewis Lung Tumor (3LL), the % Inhibition (commonly the change of the read-out against control, counted positive when it falls) is recorded as 4% and the “Tumor Weight (gr)” value is listed as 4.92 gr. Further, in the data set with B16 Melanoma [3], the “% T/C” value came out at 129% and the “Survival” value was determined as 17.5 days.
Consider `NCCCNCCCN` [Norspermidine, norspermidine], for which, in the data set on HeLa Cells [4] (0.005 mM), the “Cell No. x 10^6” value was 0.70 x 10^6 and the “Mitotic Index” value worked out at 74.0. In the data set on HeLa Cells [4] (0.05 mM), the “Cell No. x 10^6” value was 0.64 x 10^6 and the “Mitotic Index” value turned out to be 76.7. For the same compound, in the data set on HeLa Cells [4] (0.5 mM), the “Cell No. x 10^6” value is given as 0.70 x 10^6 and the “Mitotic Index” value turned out to be 71.0. The inhibition at 5 µM in the data set with HeLa Cells [4] (Homo sapiens, HeLa, 0.005 mM, read-out: % Inhibition of Cell Growth) was found to be 61%. Besides, in the data set with HeLa Cells [4] (Homo sapiens, HeLa, 0.05 mM, read-out: % Inhibition of Cell Growth), the inhibition at 50 µM came to 65%. In addition, in the data set with HeLa Cells [4] (Homo sapiens, HeLa, 0.5 mM, read-out: % Inhibition of Cell Growth), the inhibition at 500 µM is 61%. Further, in the data set on HeLa Cells [5] (0.005 mM), the “Polyamine Concentration Norspermidine” value worked out at 5.31 n·moles/10^6 cells, the “Polyamine Concentration Putriscine” value is on record as 0.026 n·moles/10^6 cells, the “Polyamine Concentration Spermidine” value was determined as 0.849 n·moles/10^6 cells and the “Polyamine Concentration Spermine” value worked out at 0.637 n·moles/10^6 cells. In the data set with HeLa Cells [5] (0.05 mM), the “Polyamine Concentration Norspermidine” value is given as 4.30 n·moles/10^6 cells, the “Polyamine Concentration Spermidine” value came out at 0.433 n·moles/10^6 cells and the “Polyamine Concentration Spermine” value came to 0.452 n·moles/10^6 cells. Also, in the data set with HeLa Cells [5] (0.5 mM), the “Polyamine Concentration Norspermidine” value is reported as 6.32 n·moles/10^6 cells, the “Polyamine Concentration Spermidine” value worked out at 0.481 n·moles/10^6 cells and the “Polyamine Concentration Spermine” value is on record as 0.441 n·moles/10^6 cells. In the data set with L1210 Leukemia [1], the “% T/C” value came to 147% and the “Survival” value is 11.0 days. Besides, in the data set on L1210 Leukemia [2], the “Polyamine Concentration Spermidine” value is reported as 0.69 n·moles/10^6 cells and the “Polyamine Concentration Spermine” value stood at 0.77 n·moles/10^6 cells. Further, in the data set on Lewis Lung Tumor (3LL), the “% Inhibition” value stood at 32% and the “Tumor Weight (gr)” value was determined as 3.50 gr. In the data set with B16 Melanoma [3], the “% T/C” value amounted to 133% and the “Survival” value is 18.0 days.
For `NCCCNCCCCCCCCNCCCN` [N,N'-bis(3-aminopropyl)-1,8-octanediamine], the “HeLa Cells Cell No. x 10^5” value in data set [6] (0.001 mM) is 7.56 x 10^5; in data set [6] (0.01 mM), 5.9 x 10^5; in [6] (0.1 mM), 4.56 x 10^5; in data set [6] (1.0 mM), 2.82 x 10^5. Moreover, the inhibition at 1 µM worked out at 39% in data set [6] (Homo sapiens, HeLa, 0.001 mM, read-out: HeLa Cells % Inh. of Cell Growth) and 16% in [7] (Mus musculus, B16, 0.001 mM, read-out: B16 Melanoma % Inh. of Cell Growth). Also, the inhibition at 10 µM in data set [6] (Homo sapiens, HeLa, 0.01 mM, read-out: HeLa Cells % Inh. of Cell Growth) is 50%; in [7] (Mus musculus, B16, 0.01 mM, read-out: B16 Melanoma % Inh. of Cell Growth) it was 57%. The inhibition at 100 µM worked out at 62% in [6] (Homo sapiens, HeLa, 0.1 mM, read-out: HeLa Cells % Inh. of Cell Growth) and 57% in [7] (Mus musculus, B16, 0.1 mM, read-out: B16 Melanoma % Inh. of Cell Growth). Also, the inhibition at 1000 µM in data set [6] (Homo sapiens, HeLa, 1.0 mM, read-out: HeLa Cells % Inh. of Cell Growth) was 76%; in data set [7] (Mus musculus, B16, 1.0 mM, read-out: B16 Melanoma % Inh. of Cell Growth), 100%. The “B16 Melanoma Cell No. x 10^6” value in data set [7] (0.001 mM) is 14.5 x 10^6; in data set [7] (0.01 mM), 7.40 x 10^6; in data set [7] (0.1 mM), 7.42 x 10^6; in [7] (1.0 mM), 0 x 10^6. Also, the “% T/C” value in the data set on L1210 Leukemia [8] (6.26 mg/kg (footnote: i.p. at 6.25 mg/kg 4 times a day, every three hours, days 3-7)) was determined as 360.0%; in the data set with L1210 Leukemia [8] (25 mg/kg: i.p. at 25 mg/Kg/day from day 1-7), 213.3%. For the same compound, the “B16 Melanoma % Inh.” value is listed as 66% in the data set with B16 Melanoma [9] (6.25 mg/kg) and 81% in the data set on B16 Melanoma [9] (12.5 mg/kg). Moreover, the “B16 Melanoma Tumor Weight (gms)” value with B16 Melanoma [9] (6.25 mg/kg) is on record as 1.68 ± 0.37 gms; with B16 Melanoma [9] (12.5 mg/kg), 0.95 ± 0.29 gms. Also, the “Lewis Lung Carcinoma % Inh.” value amounted to 37% in the data set with Lewis Lung Carcinoma (6.25 mg/kg) and 61% in the data set with Lewis Lung Carcinoma (12.5 mg/kg). The “Lewis Lung Carcinoma Tumor Weight (gms)” value in the data set on Lewis Lung Carcinoma (6.25 mg/kg) is on record as 3.10 ± 0.39 gms; in the data set on Lewis Lung Carcinoma (12.5 mg/kg), 1.94 ± 0.24 gms.
